Each structure is given as a SMILES string.

In data set [1] the test system is HeLa cells. Briefly: CFTR protein expression assay in HeLa cells (LNPs of Example 2, immunofluorescence). The conditions noted are these: compared to buffer (PBS) control, 5 h transfection, 24 h incubation, N=4 wells. Type of data set: cell-based, Human. As to the method: Lipid nanoparticles were prepared using ethanol drop nanoprecipitation followed by solvent exchange into suitable aqueous buffer using dialysis. An exemplary lipid nanoparticle composition can be prepared by a process where lipids are dissolved in ethanol at a concentration of 12.5 mM and molar ratios of 33:15:11:39.5:1.5 (e.g., ionizable lipid:SA46:phospholipid:cholesterol:PL1). Lipid to mRNA is maintained at a N/P ratio of 4.9. Then mRNA is diluted with 25 mM sodium acetate (pH 5.0) and combined with the lipid mixture at a volume ratio of 3:1 (aqueous: ethanol). Resulting formulations are dialyzed against 20 mM tris/8% sucrose/70 mM sodium chloride (pH 7.4) at a volume of 300 times that of the primary product using Slide-A-Lyzer dialysis cassettes (Thermo Scientific, Rockford, IL, USA) with a molecular cutoff of 10 KDa for at least 18 h. The first dialysis is carried out at room temperature in a digital orbital shaker (VWR, Radnor, PA, USA) at 85 rpm for 3 h and then dialyzed overnight at 4° C. Formulations are concentrated using Amicon ultra-centrifugal filters (EMD Millipore, Billerica, MA, USA), passed through a 0.22-μm filter and stored at 4° C. until use. Lipid nanoparticle solutions are typically adjusted to specific mRNA concentrations between 0.1 and 1 mg/mL. LNPs were prepared according to Example 2. To evaluate LNP cellular uptake and protein expression in vitro, HeLa cells from ATCC.org (ATCC CCL-2) are used. The cells are cultured in complete Minimum Essential Medium (MEM) and are plated in 96 well Cell Carrier Ultra plate with PDL coated surface (PerkinElmer) prior to running an experiment. Buffer control (PBS) and LNPs encapsulating cystic fibrosis transmembrane conductance regulator (CFTR) mRNA were dosed with MEM media in the absence of serum (N=4 replicate wells). LNP transfected cells were incubated for 5 h, followed by media removal and supplementation with complete MEM media. Cells were further incubated in complete MEM media overnight (24 h). Following 24 hr incubation, the cells were fixed with PFA and processed for immunofluorescence (IF) using an anti-CFTR rabbit monoclonal antibody. Briefly, the cells were permeabilized with 0.5% TX-100 for 10 min, blocked with 3% bovine serum albumin (BSA)+PBST for 1 hr at room temperature, and incubated with primary anti-CFTR monoclonal antibody overnight at 4° C. Following primary antibody incubation, the cells were incubated with Alexa 488 conjugated secondary antibody for 30 min, and stained with DAPI and HCS CellMask Blue stain. Between different incubation steps the cells were either washed with PBS or PBST. Cells were imaged using Opera Phoenix spinning disk confocal microscope (PerkinElmer), and CFTR protein expression was detected using the 488 nm channel. The image analysis was performed in Harmony 4.9, with main analysis output being CFTR intensity per cell. The results shown in Table 3a show fold-change in CFTR signal intensity per cell compared to buffer (PBS) control (nanoparticle composition: IL1:Lipid Amine:DSPC:Chol:PL1). The results shown in Table 3b show fold-change in CFTR signal intensity per cell compared to buffer (PBS) control (nanoparticle composition: IL1:Lipid Amine:DPPC:Chol:PL1).

Data set [2] in a line: CFTR mRNA nanoparticle biophysical data (DLS, Ribogreen). Type of data set: physicochemical. How it is done:
Lipids were dissolved in ethanol at a concentration of 24 mg/mL and molar ratios of 49.0:11.2:39.3:0.5 (IL1:DSPC:cholesterol:PEG-DMG-2K) and mixed with the acidification buffer (45 mM acetate buffer at pH 4). The lipid solution and acidification buffer were mixed using a multi-inlet vortex mixer at a 3:7 volumetric ratio of lipid:buffer for mixer 1 and mixer 2 and a 1:3 volumetric ratio of lipid:buffer (25% ethanol) for mixer 3. After a 5 second residence time, the resulting nanoparticles were mixed with 55 mM sodium acetate at pH 5.6 at a volumetric ratio of 5:7 of nanoparticle: buffer. See Table 4a for mixing parameters. The resulting dilute nanoparticles were then buffer exchanged and concentrated using tangential flow filtration (TFF) into a final buffer containing 5 mM sodium acetate pH 5.0. Then a 70% sucrose solution in 5 mM acetate buffer at pH 5 is subsequently added.
The resulting nanoparticles at a lipid concentration of 7.33 mg/mL in 5 mM acetate (pH 5) and 75 g/L sucrose were mixed with mRNA (luciferase or CFTR) at a concentration of 0.625 mg/mL in 42.5 mM sodium acetate pH 5.0, with N: P of 4.93. The nanoparticle solution and […] were mixed using a multi-inlet vortex mixer at a 3:2 volumetric ratio of nanoparticle:mRNA. Once loaded with mRNA, these intermediate nanoparticles underwent a 300 second residence time prior addition of neutralization buffer containing 120 mM TRIS pH 8.12 at a volumetric ratio of 5:1 of nanoparticle: buffer.
For HeLa studies evaluating CFTR protein expression, the intermediate nanoparticle formulation (1 mL, 0.415 mg mRNA) is mixed with a buffer containing 20 mM TRIS (pH 7.5), 0.9 mg/mL PEG-DMG-2K and lipid amine SA52 (647.1 nmol) at a volumetric ratio of 6:1 of nanoparticle: buffer. The resulting nanoparticle suspension underwent concentration using a centrifugal filtration device (100 kDa molecular weight cut-off) and was diluted in running buffer (20 mM TRIS, 14.3 mM sodium acetate, and 32 g/L sucrose, pH 7.5) with a 300 mM NaCl solution to a final buffer matrix containing 70 mM NaCl. […]

In data set [3] the test system is HeLa cells. In words: CFTR protein expression assay in HeLa cells (LNPs analogous to Example 4, lipid amine post-added). The conditions noted are these: LNP prepared analogous to Example 4 with CFTR mRNA, vs buffer (PBS) control, 5 hr transfection, 24 hr incubation, N=4 wells. It is filed as cell-based, Human. How it is done: Lipid nanoparticle compositions were prepared in a manner analogous to that in example 4. To evaluate LNP cellular uptake and protein expression In Vitro, HeLa cells from ATCC.org (ATCC CCL-2) was used. The cells were cultured in complete Minimum Essential Medium (MEM) and were plated in 96 well Cell Carrier Ultra plate with PDL coated surface (PerkinElmer) prior to running an experiment.
Buffer control (PBS) and LNPs encapsulating cystic fibrosis transmembrane conductance regulator (CFTR) mRNA were dosed with MEM media in the absence of serum (N=4 replicate wells). LNP transfected cells were incubated for 5 hr, followed by media removal and supplementation with complete MEM media. Cells were further incubated in complete MEM media overnight (24 hr).
Following 24 hr incubation, the cells were fixed with PFA and processed for immunofluorescence (IF) using an anti-CFTR rabbit monoclonal antibody. Briefly, the cells were permeabilized with 0.5% TX-100 for 10 min, blocked with 3% bovine serum albumin (BSA)+PBST for 1 hr at room temperature, and incubated with primary anti-CFTR monoclonal antibody overnight at 4° C. […] Cells were imaged using Opera Phoenix spinning disk confocal microscope (PerkinElmer), and CFTR protein expression was detected using the 488 nm channel. […]

On to `CC(C)CCC[C@@H](C)[C@H]1CC[C@H]2[C@@H]3CC=C4C[C@@H](OC(=O)CCC(=O)N5CCN(C)CCN(C)CC5)CC[C@]4(C)[C@H]3CC[C@]12C` [SA52, (3S,8S,9S,10R,13R,14S,17R)-10,13-Dimethyl-17-((R)-6-methylheptan-2-yl)-2,3,4,7,8,9,10,11,12,13,14,15,16,17-tetradecahydro-1H-cyclopenta[a]phenanthren-3-yl 4-(4,7-dimethyl-1,4,7-triazonan-1-yl)-4-oxobutanoate], for which the “Average fold-change in CFTR signal intensity per cell ± standard deviation” value in data set [1] (LNP IL1:Lipid Amine:DPPC:Chol:PL1 with CFTR mRNA) is on record as 9.3 ± 1.2 fold-change; in data set [1] (LNP IL1:Lipid Amine:DSPC:Chol:PL1 with CFTR mRNA), 2.3 ± 0.1 fold-change. In data set [2] (CFTR mRNA nanoparticle with lipid amine (IL1:DSPC:cholesterol:PEG-DMG-2K core), DLS), this compound returned a Diameter of 72.4 nm. Moreover, the PDI in data set [2] (CFTR mRNA nanoparticle with lipid amine, DLS) was determined as 0.11. Also, the “% Encapsulation (Ribogreen)” value in data set [2] (CFTR mRNA nanoparticle with lipid amine, Ribogreen assay) is recorded as 96.6%. In addition, in data set [3], the “Average fold-change in CFTR signal intensity per cell compared to buffer control ± standard deviation” value was 3.4 ± 0.5 fold-change.

These data come from patent US20250281419A1, “LIPID AMINES” (ModernaTX, Inc., priority 2021, published 2025).
